Tests used:
MCF-7 cells = test: Annexin V-FITC/PI apoptosis assay (flow cytometry); format: cell-based, human; conditions: 48 h
Method: Among the cell death pathways, apoptosis is very important to maintain cellular homeostasis. However, upon severe and irreparable cellular stress, all cells, including cancer cells, undergo apoptosis. In this work, the Annexin V–FITC/PI double-staining method was used in assessing the development of apoptosis when MCF-7 cells are exposed to compound 33 (0.1 and 0.5 μM for 48 h). MCF-7 cells were first treated with compound 33 for 48 h followed by staining with Annexin V–fluorescein isothiocyanate (FITC)/propidium iodide (PI). Live cells (Annexin V^−/PI^−), early apoptotic cells (Annexin V^+/PI^−), late apoptotic cells (Annexin V+/PI+) and necrotic cells (Annexin V^−/PI^+) can be differentiated by tie technique following flow cytometric analysis (Figure 5). The positive control CA-4 (at 50 nM concentration) induced 34.6% Annexin V-positive apoptotic cells, and the vehicle control used was 0.1% ethanol (v/v).
Apoptotic cell death was monitored by flow cytometry using Annexin V and propidium iodide (PI) as previously described by us. MCF-7 cells were seeded in 6-well plates at a density of 1 × 10^5 cells/mL and treated with either vehicle (0.1% (v/v) EtOH) or β-lactam compound 33 at concentrations 0.1 and 0.5 µM for 48 h. Cells were harvested and prepared for flow cytometric analysis. Cells were washed in 1X binding buffer (20X binding buffer: 0.1 M HEPES, pH 7.4; 1.4 M NaCl; 25 mM CaCl2 diluted in dH2O) and incubated in the dark for 30 min on ice in Annexin V-containing binding buffer [1:100]. Cells were then washed in binding buffer and then re-suspended in PI-containing binding buffer (1:1000). Samples were then analysed with the BD Accuri flow cytometer and Prism software. The resulting cell populations were identified as Annexin V- and PI-negative (Q4, healthy cells), Annexin V-positive and PI-negative (Q3, early apoptosis), Annexin V- and PI-positive (Q2, late apoptosis) and Annexin V-negative and PI-positive (Q1, necrosis). The positive control for induction of cell death was […].
Figure 5 Compound 33 induces apoptosis in MCF-7 breast cancer cells. […] .

Hs578T cells = test: AlamarBlue cell viability assay; format: cell-based; conditions: Homo sapiens, Hs-578T
Method: (§1) The potent 3-fluoro-β-lactam compound 33 synthesised was also evaluated in the triple-negative MDA-MB-231 cell line which lacks expression of the estrogen and progesterone receptors (ER/PR) and the HER2 receptor. […]. Compound 32 was also evaluated in the triple-negative breast cancer cell line Hs578T and its isogenic subclone Hs578T(i)8 (Figure 4C). Hs578Ts(i)8 cells have 2.5-fold more migratory capacity and 3-fold more invasive capacity through the extracellular matrix than the parental cell line (Hs578T) and have 30% more CD44+/CD24-/low cells and in vivo proliferation. […]. The human breast carcinoma cell lines MCF-7 and MDA-MB-231 were purchased from the European Collection of Animal Cell Cultures (ECACC, Salisbury, UK). The SW-480 cells were a kind gift from Dr. Brian Flood, School of Biochemistry and Immunology, Trinity College Dublin. The human breast tumour cell line MCF-7 was cultured in Eagles minimum essential medium with 10% foetal bovine serum, 2 mM L-glutamine and 100 μg/mL penicillin/streptomycin. The medium was supplemented with 1% non-essential amino acids. The human breast tumour cell line MDA-MB-231 cells were maintained in Dulbecco’s modified Eagle’s medium (DMEM) with the addition of penicillin/streptomycin (100 µg/mL), 10% (v/v) foetal bovine serum and 2 mM L-glutamine (complete medium). Breast cancer cell line Hs578T and its isogenic subclone Hs578T(i)8 were a kind gift from Dr. Susan McDonnell, School of Chemical and Bioprocess Engineering, University College Dublin. SW-480 cells, triple-negative breast cancer Hs578T cells and invasive variant Hs578T8i cells were cultured in DMEM with GlutaMAX-I, with the same supplement in the absence of non-essential amino acids. HEK-293T cells (normal epithelial embryonic kidney cells) were cultured in DMEM with GlutaMAX-I in the absence of non-essential amino acids. The SW-480 cells were cultured in DMEM with GlutaMAX-I, with the same supplement in the absence of non-essential amino acids. All media contained 100 U/mL penicillin and 100 μg/mL streptomycin. The cells were seeded into pre-warmed complete medium (10 × 10^4 cells/mL) and maintained at a cell density of 2–19 × 10^5 cells /mL by the addition of fresh media. The cell number was monitored using a haemocytometer. Cells were maintained at 37 °C in 5% CO2 in a humidified incubator. […]
(§2) Figure 4 Antiproliferative activity of 3-fluoro β-lactams on MCF-7, MDA-MB-231, Hs578T and Hs578T isogenic subclone Hs578T(i)8 breast cancer cells and non-tumourigenic HEK-293T cells. […] Cell viability was expressed as a percentage of vehicle control (ethanol 1% (v/v))-treated cells. […] Cell viability was expressed as a percentage of vehicle control (ethanol 1% (v/v))-treated cells and was measured by AlamarBlue assay (average of three independent experiments). […]

Hs578Ts(i)8 cells = test: AlamarBlue cell viability assay; format: cell-based
Method: as §1, §2

Row | SMILES | viability at 0.1 µM (MCF-7 cells; Homo sapiens, MCF7, MCF-7, 0.1 μM, read-out: Viable cells) [%] | viability at 0.5 µM (MCF-7 cells; Homo sapiens, MCF7, MCF-7, 0.5 μM, read-out: Viable cells) [%] | apoptosis (early + late) (MCF-7 cells; MCF-7, 0.1 μM) [%] | early apoptotic cells (MCF-7 cells; MCF-7, 0.1 μM) [%] | late apoptotic cells (MCF-7 cells; MCF-7, 0.1 μM) [%] | apoptosis (early + late) (MCF-7 cells; MCF-7, 0.5 μM) [%] | early apoptotic cells (MCF-7 cells; MCF-7, 0.5 μM) [%] | late apoptotic cells (MCF-7 cells; MCF-7, 0.5 μM) [%] | IC50 (Hs578T cells) [nM] | IC50 (Hs578Ts(i)8 cells) [nM] | viability at 0.05 µM (MCF-7 cells; Homo sapiens, MCF7, MCF-7, 50 nM, read-out: Viable cells) [%] | Annexin V-positive apoptotic cells (MCF-7 cells; MCF-7, 50 nM) [%]
1 | COc1ccc(C2C(F)C(=O)N2c2cc(OC)c(OC)c(OC)c2)cc1F (stereo not drawn) [Compound 33, 3-Fluoro-4-(3-fluoro-4-methoxyphenyl)-1-(3,4,5-trimethoxyphenyl)azetidin-2-one] | 84.9 | 48.8 | 14.2 | 8.1 | 6.1 | 45.9 | 22.1 | 23.8 |  |  |  | 
2 | COc1ccc(/C=C\c2cc(OC)c(OC)c(OC)c2)cc1O [CA-4, combretastatin A-4, reference compound] |  |  |  |  |  |  |  |  | 8 | 20 | 61.8 | 34.6

From publication PMC9501633, “Synthesis, Characterisation and Mechanism of Action of Anticancer 3-Fluoroazetidin-2-ones” (Pharmaceuticals, 2022)
